Experimental data from ChEMBL document CHEMBL5126514, “Molecular design of dual inhibitors of PI3K and potential molecular target of cancer for its treatment: A review” (Eur J Med Chem, 2022).

Assays:
[1] = biological target: T1, Phosphatidylinositol 4,5-bisphosphate 3-kinase catalytic subunit alpha isoform (Homo sapiens, UniProt P42336); assay: Inhibition of PI3Kalpha (unknown origin)
[2] = test system: PANC-1; assay: Anticancer activity against human PANC-1 cells assessed as cell killing activity at 25 uM relative to control; assay type: functional
[3] = biological target: T2, Mitogen-activated protein kinase; ERK1/ERK2 (Homo sapiens) (UniProt P27361+P28482); assay: Inhibition of Erk1/2 phosphorylation in human A549 cells; assay type: cell-based; conditions: concentration not given here
[4] = test system: A549; assay: Anticancer activity against human A549 cells assessed as cell killing activity at 10 uM relative to control; assay type: functional
[5] = biological target: T2, Mitogen-activated protein kinase; ERK1/ERK2 (Homo sapiens); assay: Inhibition of Erk1/2 phosphorylation in human PANC-1 cells at 5 uM relative to control; assay type: cell-based
[6] = biological target: T3, Phosphatidylinositol 4,5-bisphosphate 3-kinase catalytic subunit delta isoform (Homo sapiens, UniProt O00329); assay: Inhibition of PI3Kdelta (unknown origin) expressed in baculovirus expression system using L-alpha-phosphatidylinositol as substrate by luminescence assay
T3 sequence (O00329 whole entry): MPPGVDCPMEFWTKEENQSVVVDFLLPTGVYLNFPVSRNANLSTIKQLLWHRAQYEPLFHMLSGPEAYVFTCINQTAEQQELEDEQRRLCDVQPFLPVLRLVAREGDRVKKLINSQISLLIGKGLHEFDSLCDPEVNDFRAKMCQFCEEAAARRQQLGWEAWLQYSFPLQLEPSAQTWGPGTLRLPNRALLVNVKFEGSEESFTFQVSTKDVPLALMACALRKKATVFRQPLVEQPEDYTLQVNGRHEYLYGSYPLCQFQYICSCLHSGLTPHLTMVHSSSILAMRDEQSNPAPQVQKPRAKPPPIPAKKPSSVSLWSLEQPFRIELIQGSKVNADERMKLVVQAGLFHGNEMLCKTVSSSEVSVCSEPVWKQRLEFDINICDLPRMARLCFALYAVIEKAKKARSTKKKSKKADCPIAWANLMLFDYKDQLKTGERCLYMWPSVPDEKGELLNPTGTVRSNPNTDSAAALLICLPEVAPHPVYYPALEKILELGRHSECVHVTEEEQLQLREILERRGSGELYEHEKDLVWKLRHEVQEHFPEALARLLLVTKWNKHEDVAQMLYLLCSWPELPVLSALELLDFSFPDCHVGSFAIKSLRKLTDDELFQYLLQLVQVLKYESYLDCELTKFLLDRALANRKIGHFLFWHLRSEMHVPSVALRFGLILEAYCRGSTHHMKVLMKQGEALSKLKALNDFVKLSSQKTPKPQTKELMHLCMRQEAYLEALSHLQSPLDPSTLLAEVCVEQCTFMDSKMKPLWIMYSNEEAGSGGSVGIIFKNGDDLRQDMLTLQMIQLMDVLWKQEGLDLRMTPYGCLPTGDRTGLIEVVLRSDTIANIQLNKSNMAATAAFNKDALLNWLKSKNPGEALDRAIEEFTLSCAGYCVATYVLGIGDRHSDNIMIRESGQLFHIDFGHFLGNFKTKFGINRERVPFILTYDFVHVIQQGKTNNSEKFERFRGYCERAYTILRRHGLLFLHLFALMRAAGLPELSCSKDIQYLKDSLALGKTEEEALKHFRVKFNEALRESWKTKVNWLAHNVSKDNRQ

[7] = biological target: Phosphatidylinositol 4,5-bisphosphate 3-kinase catalytic subunit gamma isoform (Homo sapiens, UniProt P48736); assay: Inhibition of PI3Kgamma (unknown origin) expressed in baculovirus expression system using L-alpha-phosphatidylinositol as substrate by luminescence assay
[8] = biological target: T4, Polyamine deacetylase HDAC10 (Homo sapiens, UniProt Q969S8); assay: Inhibition of full-length HDAC10 (unknown origin) by Color-de-Lys assay
T4 sequence (Q969S8 whole entry): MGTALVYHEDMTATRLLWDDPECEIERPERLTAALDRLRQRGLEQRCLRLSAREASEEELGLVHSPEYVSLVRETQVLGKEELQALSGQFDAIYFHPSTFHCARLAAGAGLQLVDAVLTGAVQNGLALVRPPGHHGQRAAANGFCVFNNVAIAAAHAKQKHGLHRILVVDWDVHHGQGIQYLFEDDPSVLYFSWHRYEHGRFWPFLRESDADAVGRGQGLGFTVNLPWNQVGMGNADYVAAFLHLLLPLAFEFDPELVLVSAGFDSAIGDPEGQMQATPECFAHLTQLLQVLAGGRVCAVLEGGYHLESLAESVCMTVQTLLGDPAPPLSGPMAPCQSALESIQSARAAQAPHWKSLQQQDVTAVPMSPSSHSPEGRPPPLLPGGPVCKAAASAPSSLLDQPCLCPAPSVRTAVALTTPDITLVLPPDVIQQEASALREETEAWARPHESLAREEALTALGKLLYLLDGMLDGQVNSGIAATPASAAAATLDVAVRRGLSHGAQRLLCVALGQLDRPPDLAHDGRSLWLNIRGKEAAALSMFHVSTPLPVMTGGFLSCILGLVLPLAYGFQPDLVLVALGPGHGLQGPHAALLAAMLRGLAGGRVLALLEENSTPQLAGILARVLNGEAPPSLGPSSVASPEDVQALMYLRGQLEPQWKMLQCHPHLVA

[9] = biological target: T1, Phosphatidylinositol 4,5-bisphosphate 3-kinase catalytic subunit alpha isoform; assay: Inhibition of full-length PI3Kalpha (unknown origin) expressed in baculovirus infected Sf9 cells by ADP-Glo luminescent kinase assay
[10] = biological target: Phosphatidylinositol 4,5-bisphosphate 3-kinase catalytic subunit beta isoform (Homo sapiens, UniProt P42338); assay: Inhibition of full-length PI3Kbeta (unknown origin) expressed in baculovirus infected Sf9 cells by ADP-Glo luminescent kinase assay
[11] = biological target: T3, Phosphatidylinositol 4,5-bisphosphate 3-kinase catalytic subunit delta isoform; assay: Inhibition of full-length PI3Kdelta (unknown origin) expressed in baculovirus infected Sf9 cells by ADP-Glo luminescent kinase assay
[12] = biological target: Histone deacetylase 1 (Homo sapiens, UniProt Q13547); assay: Inhibition of full-length HDAC1 (unknown origin) by Color-de-Lys assay
[13] = biological target: T1, Phosphatidylinositol 4,5-bisphosphate 3-kinase catalytic subunit alpha isoform; assay: Inhibition of PI3Kalpha (unknown origin) expressed in baculovirus expression system using L-alpha-phosphatidylinositol as substrate by luminescence assay
[14] = Anticancer activity against human TU183 cells assessed as growth inhibition; assay type: functional, cell-based
[15] = test system: SCC-4; assay: Anticancer activity against human SCC-4 cells assessed as growth inhibition; assay type: functional, cell-based
[16] = test system: KB; assay: Anticancer activity against human KB cells assessed as growth inhibition; assay type: functional, cell-based
[17] = biological target: T5, Protein deacetylase HDAC6 (Homo sapiens, UniProt Q9UBN7); assay: Inhibition of full-length HDAC6 (unknown origin) by Color-de-Lys assay
T5 sequence (Q9UBN7 whole entry): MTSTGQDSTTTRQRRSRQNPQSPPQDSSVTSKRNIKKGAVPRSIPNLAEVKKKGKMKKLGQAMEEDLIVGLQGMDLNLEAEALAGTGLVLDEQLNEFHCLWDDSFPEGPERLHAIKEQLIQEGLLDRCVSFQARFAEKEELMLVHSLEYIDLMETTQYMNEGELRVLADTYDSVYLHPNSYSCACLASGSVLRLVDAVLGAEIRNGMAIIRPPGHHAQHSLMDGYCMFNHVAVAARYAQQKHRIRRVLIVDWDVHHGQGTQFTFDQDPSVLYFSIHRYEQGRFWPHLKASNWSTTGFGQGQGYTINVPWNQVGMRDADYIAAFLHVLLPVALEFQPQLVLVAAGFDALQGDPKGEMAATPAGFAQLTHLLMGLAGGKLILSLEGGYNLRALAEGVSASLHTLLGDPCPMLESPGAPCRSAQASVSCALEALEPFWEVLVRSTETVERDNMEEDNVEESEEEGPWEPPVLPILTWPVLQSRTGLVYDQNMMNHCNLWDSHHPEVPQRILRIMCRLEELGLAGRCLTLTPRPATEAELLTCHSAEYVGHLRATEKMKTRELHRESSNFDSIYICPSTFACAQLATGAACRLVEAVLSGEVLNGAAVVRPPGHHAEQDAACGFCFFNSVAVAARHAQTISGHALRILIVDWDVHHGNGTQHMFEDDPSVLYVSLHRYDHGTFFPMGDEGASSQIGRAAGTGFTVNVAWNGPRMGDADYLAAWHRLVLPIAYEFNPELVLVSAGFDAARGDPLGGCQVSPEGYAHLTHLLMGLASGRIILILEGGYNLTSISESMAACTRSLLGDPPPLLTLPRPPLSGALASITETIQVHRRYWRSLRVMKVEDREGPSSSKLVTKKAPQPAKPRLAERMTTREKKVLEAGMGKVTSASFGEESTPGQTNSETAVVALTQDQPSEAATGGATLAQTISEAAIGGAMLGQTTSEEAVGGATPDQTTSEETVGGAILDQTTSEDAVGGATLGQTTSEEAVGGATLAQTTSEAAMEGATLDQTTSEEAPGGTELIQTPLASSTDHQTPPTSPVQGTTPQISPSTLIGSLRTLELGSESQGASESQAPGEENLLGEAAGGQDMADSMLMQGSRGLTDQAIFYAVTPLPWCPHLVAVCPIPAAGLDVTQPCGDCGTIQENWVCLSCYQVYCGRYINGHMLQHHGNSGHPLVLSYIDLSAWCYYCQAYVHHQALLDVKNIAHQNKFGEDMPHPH

[18] = biological target: T3, Phosphatidylinositol 4,5-bisphosphate 3-kinase catalytic subunit delta isoform; assay: Inhibition of PI3Kdelta (unknown origin)
[19] = Inhibition of mTORC1 (unknown origin); parameters: species or system Homo sapiens
[20] = Inhibition of PI3K (unknown origin); parameters: species or system Homo sapiens

T1 sequence (P42336 whole entry, canonical isoform): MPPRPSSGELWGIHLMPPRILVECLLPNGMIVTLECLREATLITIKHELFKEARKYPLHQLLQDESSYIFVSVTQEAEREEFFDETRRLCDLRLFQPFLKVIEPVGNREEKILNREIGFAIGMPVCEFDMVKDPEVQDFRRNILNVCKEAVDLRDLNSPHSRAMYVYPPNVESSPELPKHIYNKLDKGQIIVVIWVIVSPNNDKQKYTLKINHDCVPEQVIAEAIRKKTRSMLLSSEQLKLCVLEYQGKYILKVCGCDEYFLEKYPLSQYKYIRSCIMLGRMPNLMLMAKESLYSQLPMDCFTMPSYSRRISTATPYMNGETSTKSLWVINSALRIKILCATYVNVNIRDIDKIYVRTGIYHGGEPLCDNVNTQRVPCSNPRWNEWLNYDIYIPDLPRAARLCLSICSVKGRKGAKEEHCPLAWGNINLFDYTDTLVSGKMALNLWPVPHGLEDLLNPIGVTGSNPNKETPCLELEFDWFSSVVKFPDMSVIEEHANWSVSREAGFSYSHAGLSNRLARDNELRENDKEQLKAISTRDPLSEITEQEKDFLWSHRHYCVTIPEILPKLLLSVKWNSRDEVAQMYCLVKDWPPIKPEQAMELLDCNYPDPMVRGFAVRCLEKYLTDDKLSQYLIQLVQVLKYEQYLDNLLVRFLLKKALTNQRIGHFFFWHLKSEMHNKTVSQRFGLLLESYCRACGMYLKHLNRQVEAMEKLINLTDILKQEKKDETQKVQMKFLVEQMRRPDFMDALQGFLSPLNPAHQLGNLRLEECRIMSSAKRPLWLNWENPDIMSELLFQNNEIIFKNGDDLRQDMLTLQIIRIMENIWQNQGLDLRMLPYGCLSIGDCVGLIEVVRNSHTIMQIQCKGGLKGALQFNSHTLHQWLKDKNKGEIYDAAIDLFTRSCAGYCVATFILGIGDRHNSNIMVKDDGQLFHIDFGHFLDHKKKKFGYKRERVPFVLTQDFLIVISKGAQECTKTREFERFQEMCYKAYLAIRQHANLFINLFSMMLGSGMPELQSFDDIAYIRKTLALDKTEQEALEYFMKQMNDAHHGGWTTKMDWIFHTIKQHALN
Sequence of Histone deacetylase 1 (Q13547 whole entry, canonical isoform): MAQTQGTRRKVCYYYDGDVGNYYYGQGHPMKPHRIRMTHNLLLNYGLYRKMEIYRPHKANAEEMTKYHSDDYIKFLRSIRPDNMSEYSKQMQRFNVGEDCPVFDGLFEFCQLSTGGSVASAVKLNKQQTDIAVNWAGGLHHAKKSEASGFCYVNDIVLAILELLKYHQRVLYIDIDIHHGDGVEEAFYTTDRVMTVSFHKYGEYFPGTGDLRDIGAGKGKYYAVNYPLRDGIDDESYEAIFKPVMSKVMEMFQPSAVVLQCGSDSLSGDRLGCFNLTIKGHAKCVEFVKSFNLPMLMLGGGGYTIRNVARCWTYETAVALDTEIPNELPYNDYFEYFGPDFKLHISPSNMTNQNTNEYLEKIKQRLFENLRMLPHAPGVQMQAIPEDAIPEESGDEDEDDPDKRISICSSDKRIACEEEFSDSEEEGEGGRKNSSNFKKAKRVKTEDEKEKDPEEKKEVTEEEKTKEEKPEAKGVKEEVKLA
T2 sequence (P27361 whole entry, looked up): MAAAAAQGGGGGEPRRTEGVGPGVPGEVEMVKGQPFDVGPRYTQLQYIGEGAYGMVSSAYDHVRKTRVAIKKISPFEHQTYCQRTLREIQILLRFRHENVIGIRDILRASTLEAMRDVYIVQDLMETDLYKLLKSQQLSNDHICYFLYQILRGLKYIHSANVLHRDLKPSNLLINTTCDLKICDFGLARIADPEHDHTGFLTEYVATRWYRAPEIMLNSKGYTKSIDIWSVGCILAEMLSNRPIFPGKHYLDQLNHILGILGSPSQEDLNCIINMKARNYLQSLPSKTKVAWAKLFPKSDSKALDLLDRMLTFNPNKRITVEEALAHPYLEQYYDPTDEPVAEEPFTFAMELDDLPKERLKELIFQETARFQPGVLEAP
T2 sequence (P28482 whole entry, looked up): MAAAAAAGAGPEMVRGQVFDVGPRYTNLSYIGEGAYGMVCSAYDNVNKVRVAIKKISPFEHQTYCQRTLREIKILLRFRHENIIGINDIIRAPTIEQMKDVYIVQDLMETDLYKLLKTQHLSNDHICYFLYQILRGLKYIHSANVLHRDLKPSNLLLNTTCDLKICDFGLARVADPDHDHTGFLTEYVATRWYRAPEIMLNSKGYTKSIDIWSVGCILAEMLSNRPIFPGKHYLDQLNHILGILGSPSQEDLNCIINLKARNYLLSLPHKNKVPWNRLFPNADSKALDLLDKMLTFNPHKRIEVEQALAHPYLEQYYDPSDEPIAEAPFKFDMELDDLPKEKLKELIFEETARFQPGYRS
Sequence of Phosphatidylinositol 4,5-bisphosphate 3-kinase catalytic subunit gamma isoform (P48736 whole entry, canonical isoform): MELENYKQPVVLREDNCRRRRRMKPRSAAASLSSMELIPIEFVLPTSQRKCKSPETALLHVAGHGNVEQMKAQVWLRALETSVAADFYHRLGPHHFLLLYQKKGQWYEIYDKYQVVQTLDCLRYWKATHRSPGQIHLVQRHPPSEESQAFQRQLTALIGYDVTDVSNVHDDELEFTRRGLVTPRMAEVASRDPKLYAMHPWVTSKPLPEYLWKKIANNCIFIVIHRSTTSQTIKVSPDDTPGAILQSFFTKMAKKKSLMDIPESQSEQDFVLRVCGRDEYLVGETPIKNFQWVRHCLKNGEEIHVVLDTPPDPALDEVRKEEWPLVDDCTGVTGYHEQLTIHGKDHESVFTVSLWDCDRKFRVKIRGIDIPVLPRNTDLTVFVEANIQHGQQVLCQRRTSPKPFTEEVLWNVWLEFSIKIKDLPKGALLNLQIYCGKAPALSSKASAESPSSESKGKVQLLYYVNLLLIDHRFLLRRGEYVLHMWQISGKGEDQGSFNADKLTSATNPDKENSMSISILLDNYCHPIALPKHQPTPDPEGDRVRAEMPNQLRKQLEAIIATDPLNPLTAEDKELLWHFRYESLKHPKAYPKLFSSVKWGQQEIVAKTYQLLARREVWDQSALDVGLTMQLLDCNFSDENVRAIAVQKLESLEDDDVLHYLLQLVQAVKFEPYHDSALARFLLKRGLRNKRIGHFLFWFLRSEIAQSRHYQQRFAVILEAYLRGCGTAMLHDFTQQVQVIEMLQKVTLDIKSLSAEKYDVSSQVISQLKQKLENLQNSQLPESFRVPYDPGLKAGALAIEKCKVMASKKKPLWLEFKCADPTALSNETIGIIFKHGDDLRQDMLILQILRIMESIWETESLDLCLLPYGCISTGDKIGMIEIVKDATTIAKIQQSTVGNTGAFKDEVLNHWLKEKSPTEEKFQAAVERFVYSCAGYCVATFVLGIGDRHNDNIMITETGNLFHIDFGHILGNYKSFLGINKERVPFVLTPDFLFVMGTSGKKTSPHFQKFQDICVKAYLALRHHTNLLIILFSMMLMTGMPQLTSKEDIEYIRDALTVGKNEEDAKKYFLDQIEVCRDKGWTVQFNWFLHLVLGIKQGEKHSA
Sequence of Phosphatidylinositol 4,5-bisphosphate 3-kinase catalytic subunit beta isoform (P42338 whole entry, canonical isoform): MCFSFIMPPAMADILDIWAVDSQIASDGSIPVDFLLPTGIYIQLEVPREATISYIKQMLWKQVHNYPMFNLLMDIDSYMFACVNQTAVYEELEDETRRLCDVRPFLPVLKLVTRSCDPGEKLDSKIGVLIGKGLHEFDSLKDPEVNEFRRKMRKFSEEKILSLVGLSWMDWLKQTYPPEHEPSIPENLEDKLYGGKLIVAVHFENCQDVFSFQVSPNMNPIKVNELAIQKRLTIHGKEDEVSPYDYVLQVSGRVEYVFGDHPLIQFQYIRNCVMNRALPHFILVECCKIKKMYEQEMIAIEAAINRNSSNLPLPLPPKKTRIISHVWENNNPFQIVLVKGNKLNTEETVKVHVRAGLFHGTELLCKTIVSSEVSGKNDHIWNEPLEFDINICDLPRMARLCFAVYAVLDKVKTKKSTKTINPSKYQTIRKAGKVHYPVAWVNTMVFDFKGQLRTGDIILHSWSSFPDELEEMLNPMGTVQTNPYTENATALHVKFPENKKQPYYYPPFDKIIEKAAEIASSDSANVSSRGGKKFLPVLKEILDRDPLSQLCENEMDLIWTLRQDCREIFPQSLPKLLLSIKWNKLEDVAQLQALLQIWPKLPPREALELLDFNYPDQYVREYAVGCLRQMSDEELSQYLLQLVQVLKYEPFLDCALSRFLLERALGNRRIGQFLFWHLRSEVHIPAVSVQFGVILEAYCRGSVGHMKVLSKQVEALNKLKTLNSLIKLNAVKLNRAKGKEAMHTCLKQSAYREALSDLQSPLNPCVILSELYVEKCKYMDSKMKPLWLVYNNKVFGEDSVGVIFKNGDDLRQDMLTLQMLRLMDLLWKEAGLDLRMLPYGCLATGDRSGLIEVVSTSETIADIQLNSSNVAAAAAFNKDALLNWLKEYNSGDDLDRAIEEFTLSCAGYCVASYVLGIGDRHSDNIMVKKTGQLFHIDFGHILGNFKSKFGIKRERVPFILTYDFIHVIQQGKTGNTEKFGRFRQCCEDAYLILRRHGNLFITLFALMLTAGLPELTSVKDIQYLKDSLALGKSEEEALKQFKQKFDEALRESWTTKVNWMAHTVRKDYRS

With `Cc1c(Cc2cccc(N(C)S(=O)(=O)CCCNCCCCCC(=O)N3CCN(c4nc(N5CCOCC5)nc(-n5c(C(F)F)nc6ccccc65)n4)CC3)c2)c(=O)oc2cc(OC(=O)N(C)C)ccc12` the IC50 [1] was 172 nM, the inhibition at 25 µM [2] was 50% and the inhibition [3] was 35%. It also gave an inhibition at 10 µM [4] of 50% and an inhibition [5] of 35%.
With `CCn1c(=O)c(-c2cc[nH]n2)cc2c(C)nc(N)nc21` [VOXTALISIB] the IC50 [6] was 9 nM and the IC50 [7] was 43 nM.
`Cn1cc(CNCC2CCN(c3ncc(C(=O)NO)cn3)CC2)c2ccccc21` [QUISINOSTAT] showed an IC50 [8] of 2.8 nM, an IC50 [9] of 19 nM and an IC50 [10] of 54 nM. It also gave an IC50 [11] of 39 nM.
In the case of `COc1ncc(-c2cc(OCCN(C)c3ncc(C(=O)NO)cn3)c3nc(N)nc(C)c3c2)cc1C`, the IC50 [12] is reported as 1.3 nM and the IC50 [13] is reported as 226 nM.
`COc1ccc(-c2ccc3ncc4c(c3c2)n(-c2ccc(N3CCNCC3)c(C(F)(F)F)c2)c(=O)n4C)cn1` [BGT-226 FREE BASE] gave an IC50 [14] of 7.4 nM, an IC50 [6] of 38 nM and an IC50 [15] of 7.4 nM. The IC50 [16] was 7.4 nM.
Compound `O=C(NO)c1ccc(/C=N/NC(=O)c2ccnc(-c3ccccc3)n2)cc1` has an IC50 [17] of 18.7 nM.
Compound `O=C(NOCCOCCOCCOCCN1CCN(c2nc(N3CCOCC3)nc(-n3c(C(F)F)nc4ccccc43)n2)CC1)c1ccc(F)c(F)c1Nc1ccc(I)cc1F` has an IC50 [18] of 182 nM.
With `COc1c(OCCCCCC(=O)NO)ccc2c1N=C(NC(=O)c1ccccc1)N1CCN=C21` the IC50 [12] was 2.98 nM and the IC50 [13] was 50 nM.
Work on `COc1ncc(-c2ccc3nccc(-c4ccnnc4)c3c2)cc1NS(=O)(=O)c1ccc(F)cc1F` [OMIPALISIB] yielded an IC50 [19] of 0.04 nM and an IC50 [20] of 0.3 nM.
`COc1ncc(-c2cc(OCCCCCCC(=O)NO)c3nc(N)nc(C)c3c2)cc1F` showed an IC50 [12] of 1.4 nM and an IC50 [13] of 42 nM.
